# Results taken from patent US6544727B1, “Methods and devices for the removal of psoralens from blood products” (Cerus Corporation, priority 1995, dated 2003).
# Where two headings read alike, the source gives them in different places.
# How the values were obtained:
# [1] = tested on: Salmonella tester strain TA98; experiment: Ames test, strain TA98; conditions: TA98 − S9; 10 μg/plate
# Experimental: (§1) In this example the compounds of the present invention are tested for their dark mutagenicity using an Ames assay. The procedures used for the Salmonella mutagenicity test as described in detail by Maron and Ames were followed exactly. Maron, D. M. and B. N. Ames, Mutation Research 113: 173 ( 1983). A brief description for each procedure is given here. The tester strains TA97a, TA98, TA100, TA102, TA1537 and TA1538 were obtained from Dr. Ames. TA97a, TA98, TA1537 and TA1538 are frameshift tester strains. TA100 and TA102 are base-substitution tester strains. Upon receipt each strain was cultured under a variety of conditions to confirm the genotypes specific to the strains.
# (§2) The first tests done with the strains were to determine the range of spontaneous reversion for each of the strains. With each mutagenicity experiment the spontaneous reversion of the tester strains to histidine independence was measured and expressed as the number of spontaneous revertants per plate. This served as the background controls.
# For all experiments, the pre-incubation procedure was used. In this procedure one vial of each tester strain was thawed and 20 μL of this culture was added to 6 mL of Oxoid Nutrient Broth #2. This solution was allowed to shake for 10 hours at 37° C. In the pre-incubation procedure, 0.1 mL of this overnight culture was added to each of the required number of sterile test tubes. To half of the tubes 0.5 mL of a 10% S-9 solution containing Aroclor 1254 induced rat liver extract (Molecular Toxicology Inc., Annapolis, Md.), and MgCl2, KCl, glucose-6-phosphate, NADP, and sodium phosphate buffer (Sigma, St. Louis, Mo.) were added. To the other half of the tubes 0.5 mL of 0.2M sodium phospate buffer, pH 7.4, was used in place of the S-9 mixture (the—S9samples). […] The 0.7 mL mixture was vortexed and then pre-incubated while shaking for 20 minutes at 37° C. After shaking, 2 mL of molten top agar supplemented with histidine and biotin were added to the 0.7 mL mixture and immediately poured onto a minimal glucose agar plate (volume of base agar was 20 mL). The top agar was allowed 30 minutes to solidify and then the plates were inverted and incubated for 44 hours at 37° C. After incubation the number of revertant colonies on each plate were counted. […] (“n” represents the number of replicates performed for each data point.)
# [2] = tested on: Salmonella tester strain TA1537; experiment: Ames test, strain TA1537; conditions: TA1537 − S9; 10 μg/plate
# Experimental: as §1, §2
# (§3) For all experiments, the pre-incubation procedure was used. In this procedure one vial of each tester strain was thawed and 20 μL of this culture was added to 6 mL of Oxoid Nutrient Broth #2. This solution was allowed to shake for 10 hours at 37° C. In the pre-incubation procedure, 0.1 mL of this overnight culture was added to each of the required number of sterile test tubes. To half of the tubes 0.5 mL of a 10% S-9 solution containing Aroclor 1254 induced rat liver extract (Molecular Toxicology Inc., Annapolis, Md.), and MgCl2, KCl, glucose-6-phosphate, NADP, and sodium phosphate buffer (Sigma, St. Louis, Mo.) were added. To the other half of the tubes 0.5 mL of 0.2M sodium phospate buffer, pH 7.4, was used in place of the S-9 mixture (the—S9samples). Finally 0.1 mL of the test solution containing either 0, 0.1, 0.5, 1, 5, 10, 50, 100, 250, or 500 μg/mL of the test compound was added. The 0.7 mL mixture was vortexed and then pre-incubated while shaking for 20 minutes at 37° C. After shaking, 2 mL of molten top agar supplemented with histidine and biotin were added to the 0.7 mL mixture and immediately poured onto a minimal glucose agar plate (volume of base agar was 20 mL). The top agar was allowed 30 minutes to solidify and then the plates were inverted and incubated for 44 hours at 37° C. After incubation the number of revertant colonies on each plate were counted. […] (“n” represents the number of replicates performed for each data point.)
# R17 bacteriophage = R17 bacteriophage inactivation assay, varying compound concentration; format: cell-based; conditions: for R17 Log Kill: starting titer approx. 7.1 logs; for R17 inactivation efficiency compared with AMT or 8-MOP (in words): varying concentration, Tables 6-9, FIGS. 6-10
# Experimental: An r-17 bacteriophage assay was used in this example to predict pathogen inactivation efficiency and to determine nucleic acid binding of the photoreactive binding compounds of the present invention. In the r-17 assay, the bacteriophage was placed in a solution with each compound tested and was then irradiated. The ability of the phage to subsequently infect bacteria and inhibit their growth was measured. The bacteriophage was selected for its relatively accessible nucleic acid such that the culture growth inhibition would accurately reflect nucleic acid damage by the test compounds. The bacteriophage assay for nucleic acid binding to test compounds offers a safe and inexpensive procedure to identify compounds likely to display efficient pathogen inactivation.
# The R17 was grown up in Hfr 3000 bacteria, approximate titer 5×10^11. (R17 and Hfr 3000 were obtained from American Tissue Culture Collection (ATCC), Washington, D.C.) The R17 phage stock was added to a solution of 15% fetal bovine serum in Dulbecco's Modified Eagles Medium (DMEM) to a final phage concentration of 10^9/mL. An aliquot (0.5 mL) was transferred to a 1.5 mL snap-top polyethylene tube. An aliquot (0.004-0.040 mL) of the test compound stock solution prepared in water, ethanol or dimethylsulfoxide at 0.80-8.0 mM was added to the tube. Compounds were tested at concentrations between 4 μM and 320 μM. […] The tubes were placed in a light device as described in EXAMPLE 1 and irradiated for between 1 and 10 minutes. Sterile 13 mL dilution tubes were prepared; each test compound required one tube with 0.4 mL of Luria broth (LB) and five tubes containing 0.5 mL of LB broth. To make the dilutions, a 0.100 mL aliquot of the irradiated solution of phage and test compound was added to the first dilution tube of 0.4 mL of media then 0.020 mL of this solution was added to the second tube of 0.5 mL medium (1:25). The second solution was then diluted serially (1:25) into the remaining tubes. To each diluted sample was added 0.050 mL of Hfr 3000 bacteria cultured overnight and 3 mL of molten LB top agar and the mixed materials were poured onto LB broth plates. After the top agar hardened, the plates were incubated at 37° C. overnight. The plaque forming units were then counted the following morning and the titer of the phage remaining after phototreatment was calculated based on the dilution factors.
# The following controls were run: the “phage only” in which phage was not treated with test compound and not irradiated (listed as “starting titer” in the tables below); the “UV only” in which the phage was irradiated in the absence of test compound; and the “dark” control in which the phage/test compound solution was not irradiated before it was diluted and plated.
# HIV-1 = conditions: 1 minute irradiation
# Experimental: As in the R17 assay, small aliquots of the compounds listed in TABLES 10 and 11, below, at the concentrations listed in the table, were added to stock HIV-1 to a total of 0.5 mL. The stock HIV (10^5−10^7 plaque forming units/mL) was in DMEM15% FBS. […] Controls included HIV-1 stock only, HIV-1 plus UVA only, and HIV-1 plus the highest concentration of each psoralen tested, with no UVA. Post irradiation, all samples were store frozen at −70° C. until assayed for infectivity by a microtiter plaque assay. Aliquots for measurement of residual HIV infectivity in the samples treated with a compound of the present invention were withdrawn and cultured.
# Residual HIV infectivity was assayed using an MT-2 infectivity assay. […] The assay medium was 85% DMEM (with a high glucose concentration) containing 100 μg of streptomycin, 100 U of penicillin, 50 μg of gentamicin, and 1 μg of amphotericin B per mL, 15% FBS and 2 μg of Polybrene (Sigma Chemical Co., St. Louis, Mo.) per mL. Test and control samples from the inactivation procedure were diluted in 50% assay medium and 50% normal human pooled plasma The samples were serially diluted directly in 96-well plates (Corning Glass Works, Corning, N.Y.). The plates were mixed on an oscillatory shaker for 30 seconds and incubated at 37° C. in a 5% CO2 atmosphere for 1 to 18 hours. […] After an additional 1 hour of incubation at 37° C. in 5% CO2, 0.075 mL of assay medium containing 1.6% SeaPlaque agarose (FMC Bioproducts, Rockland, Me.) and prewarmed to 38.5° C. was added to each well. The plates were kept at 37° C. for a few minutes until several plates had accumulated and then centrifuged in plate carriers at 600×g for 20 minutes in a centrifuge precooled to 10° C. In the centrifuge, cell monolayers formed prior to gelling of the agarose layer. The plates were incubated for 5 days at 37° C. in 5% CO2 and stained by the addition of 0.05 mL of 50 μg/mL propidium iodide (Sigma Chemical Co.) in phosphate-buffered saline (pH 7.4) to each well. After 24 to 48 hours, the red fluorescence-stained microplaques were visualized by placing the plates on an 8,000 μW/cm^2304 nm UV light box (Fotodyne, Inc., New Berlin, Wis.). The plaques were counted at a magnification of x20 to x25 through a stereomicroscope.
# mouse reticulocytes = conditions: positive control, 30 mg/kg administered only once, on day three, blood on day 5; 30 mg/kg
# Experimental: Male Balb/c mice were then injected with 0.1 ml of a compound solution via the tail vein. At least 3 mice were injected per dose level. Saline only was used as a negative control. For a positive control, cyclophosphamide (cycloPP) was administered at a dose of 30 mg/kg. In the experimental group, the injections were repeated once per day for four days. In the positive control group, the sample was administered only once, on day three. On day 5, several microliters of blood were withdrawn from each subject and smeared on a glass slide. Cells were fixed in absolute methanol and stored in a slide rack.
# For analysis, cells were stained with acridine orange and visualized under a fluorescence microscope by counting: (i) the number of reticulocytes per 5000 erythrocytes; and (ii) the number of micronucleated reticulocytes per 1000 reticulocytes. Reticulocytes were distinguished by their red fluorescence due to the presence of RNA. Micronuclei were distinguished by their green fluorescence due to the presence of DNA. The percentage of reticulocytes (%PCE) was then calculated. A decrease in the frequency of […] in the percentage of reticulocytes, is an indication of bone marrow toxicity. The percentage of reticulocytes with micronuclei (%PCE with MN) was also calculated. An increase in %PCE with MN is a measure of clastogenicity.
# After initial results were determined, the experiment was repeated using increased dose levels, until: (i) Micronucleus formation was seen; or (ii) Bone marrow toxicity was observed; or (iii) The lethal dose was reached; or (iv) A dose of 5 g/kg was administered.
# [3] = tested on: Salmonella tester strain TA100; conditions: TA100 − S9; 1.5 μg/plate
# Experimental: as §1, §2, §3
# [4] = tested on: Salmonella tester strain TA1538; conditions: TA1538 − S9; 1.5 μg/plate
# Experimental: as §1, §2, §3
# [5] = tested on: Salmonella tester strain TA102; experiment: Ames test, strain TA102; conditions: TA102 − S9; 100 μg/plate
# Experimental: as §1, §2, §3
# [6] = 16 μM, starting titer approximately 5 logs (Table 10)
# [7] = 32 μM, starting titer approximately 5 logs (Table 10)
# [8] = 64 μM, starting titer approximately 5 logs (Table 10)
structure (smiles),measurement,setting,value
"Nc1c2ccccc2nc2ccccc12 [9-Amino-acridine, reference compound]",revertant colonies per plate,[1],284
same,revertant colonies per plate,[2],284
"Cc1oc2c(C)c3oc(=O)cc(C)c3cc2c1CNCCCN [Compound 5, 4′-(5-amino-2-aza)pentyl-4,5′,8-trimethylpsoralen]",R17 Log Kill,"R17 bacteriophage; 16 μM, 1 minute irradiation = 1.2 J/cm^2 (Table 8)",5.6 log
same,R17 Log Kill,"R17 bacteriophage; 32 μM, 1 minute irradiation = 1.2 J/cm^2 (Table 8)",>6.1 log
same,R17 Log Kill,"R17 bacteriophage; 64 μM, 1 minute irradiation = 1.2 J/cm^2 (Table 8)",>6.1 log
same,R17 inactivation efficiency compared with AMT or 8-MOP (in words),R17 bacteriophage,significantly higher inactivation efficiency than does AMT
same,HIV Log Kill,HIV-1; [6],0.9 log
same,HIV Log Kill,HIV-1; [7],1.3 log
same,HIV Log Kill,HIV-1; [8],>2.6 log
"Cc1oc2c(C)c3oc(=O)cc(C)c3cc2c1COCCOCCN [Compound 7, 4′-(7-amino-2,5-oxa)heptyl-4,5′,8-trimethylpsoralen]",R17 Log Kill,"R17 bacteriophage; 16 μM, 1 minute irradiation (Table 9)",>6 log
same,R17 Log Kill,"R17 bacteriophage; 32 μM, 1 minute irradiation (Table 9)",>6 log
same,R17 Log Kill,"R17 bacteriophage; 64 μM, 1 minute irradiation (Table 9)",>6 log
same,HIV Log Kill,HIV-1; [6],0.8 log
same,HIV Log Kill,HIV-1; [7],2.1 log
same,HIV Log Kill,HIV-1; [8],3.5 log
"Cc1oc2c(C)c3oc(=O)cc(C)c3cc2c1COCCOCCNCCCCN [Compound 8, 4′-(12-amino-8-aza-2,5-dioxa)dodecyl-4,5′,8-trimethylpsoralen]",HIV Log Kill,HIV-1; [6],1.1 log
same,HIV Log Kill,HIV-1; [7],1.9 log
same,HIV Log Kill,HIV-1; [8],3.7 log
"Cc1oc2c(C)c3oc(=O)cc(C)c3cc2c1CNCCCOCCCCOCCN [Compound 9, 4′-(13-amino-2-aza-6,11-dioxa)tridecyl-4,5′,8-trimethylpsoralen]",HIV Log Kill,"HIV-1; 16 μM, starting titer approximately 5.4 logs (Table 11)",0.8 log
same,HIV Log Kill,"HIV-1; 32 μM, starting titer approximately 5.4 logs (Table 11)",1.4 log
same,HIV Log Kill,"HIV-1; 64 μM, starting titer approximately 5.4 logs (Table 11)",2.7 log
"Cc1cc(=O)oc2c(C)c3oc(CNCCN)c(C)c3cc12 [Compound 16, 5′-(4-amino-2-aza)butyl-4,4′,8-trimethylpsoralen]",R17 inactivation efficiency compared with AMT or 8-MOP (in words),R17 bacteriophage,significantly higher inactivation efficiency than does AMT
"O=P1(N(CCCl)CCCl)NCCCO1 (stereo not drawn) [CylcoPP, cyclophosphamide, reference compound]",PCE + MN (%),mouse reticulocytes,2.09 ± 0.17%
same,PCE/RBC (%),mouse reticulocytes,0.99 ± 0.33%
"[N-]=[N+]=[N-] [Sodium Azide, sodium azide, reference compound]",revertant colonies per plate,[3],965
same,revertant colonies per plate,[4],965
OO [hydrogen peroxide],revertant colonies per plate,[5],660
